Data from ChEMBL document CHEMBL5576095, “Research progress of multi-target HDAC inhibitors blocking the BRD4-LIFR-JAK1-STAT3 signaling pathway in the treatment of cancer” (Bioorg Med Chem, 2024).
Blank lines part the entries; values can stand above or below the compound they belong to.

Columns and labels:
Histone deacetylase 1 = Histone deacetylase 1 (Homo sapiens, UniProt Q13547); assay: Inhibition of HDAC1 (unknown origin)
[1] = Inhibition of CD4 (unknown origin)
[2] = target: Tyrosine-protein kinase JAK1 (Homo sapiens, UniProt P23458); assay: Inhibition of JAK1 (unknown origin)
MV4-11 = assay: Antiproliferative activity against human MV4-11 cells assessed as reduction in cell growth; format: functional, cell-based
[3] = tested on: KATO III stomach cancer cell line; assay: cells; conditions: Homo sapiens
Description: Antiproliferative activity against human KATO III stomach cancer cell line

Chain of Tyrosine-protein kinase JAK1 (P23458 whole entry): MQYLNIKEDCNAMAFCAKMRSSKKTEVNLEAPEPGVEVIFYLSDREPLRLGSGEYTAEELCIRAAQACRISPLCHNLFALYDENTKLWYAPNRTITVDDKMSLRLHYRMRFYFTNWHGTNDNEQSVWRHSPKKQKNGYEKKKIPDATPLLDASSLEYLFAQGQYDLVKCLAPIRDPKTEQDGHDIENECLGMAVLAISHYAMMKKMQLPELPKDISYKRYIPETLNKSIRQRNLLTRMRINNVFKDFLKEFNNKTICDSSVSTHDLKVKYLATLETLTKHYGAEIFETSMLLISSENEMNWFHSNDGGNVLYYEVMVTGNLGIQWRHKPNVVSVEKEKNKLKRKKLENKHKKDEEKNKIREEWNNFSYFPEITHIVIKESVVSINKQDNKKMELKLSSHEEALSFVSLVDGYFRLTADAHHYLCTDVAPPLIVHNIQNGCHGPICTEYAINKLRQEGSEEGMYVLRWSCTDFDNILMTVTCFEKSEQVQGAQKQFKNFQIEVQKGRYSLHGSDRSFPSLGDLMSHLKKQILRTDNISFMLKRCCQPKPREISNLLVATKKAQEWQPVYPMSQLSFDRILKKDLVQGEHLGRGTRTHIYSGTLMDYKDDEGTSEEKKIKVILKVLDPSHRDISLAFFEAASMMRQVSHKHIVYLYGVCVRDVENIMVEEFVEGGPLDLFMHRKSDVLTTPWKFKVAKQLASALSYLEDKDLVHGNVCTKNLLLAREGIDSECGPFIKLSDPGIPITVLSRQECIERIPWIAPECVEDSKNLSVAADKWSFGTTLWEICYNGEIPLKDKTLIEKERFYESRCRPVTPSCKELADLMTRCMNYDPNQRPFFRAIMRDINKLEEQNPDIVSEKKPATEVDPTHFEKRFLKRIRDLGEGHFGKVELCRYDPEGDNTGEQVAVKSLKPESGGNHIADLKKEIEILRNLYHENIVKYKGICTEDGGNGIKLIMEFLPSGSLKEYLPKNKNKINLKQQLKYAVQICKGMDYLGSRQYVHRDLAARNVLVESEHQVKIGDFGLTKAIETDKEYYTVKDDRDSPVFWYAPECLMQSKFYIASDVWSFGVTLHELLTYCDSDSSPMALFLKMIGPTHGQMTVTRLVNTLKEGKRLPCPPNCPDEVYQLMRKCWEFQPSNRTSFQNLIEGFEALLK
Chain of Histone deacetylase 1 (Q13547 whole entry): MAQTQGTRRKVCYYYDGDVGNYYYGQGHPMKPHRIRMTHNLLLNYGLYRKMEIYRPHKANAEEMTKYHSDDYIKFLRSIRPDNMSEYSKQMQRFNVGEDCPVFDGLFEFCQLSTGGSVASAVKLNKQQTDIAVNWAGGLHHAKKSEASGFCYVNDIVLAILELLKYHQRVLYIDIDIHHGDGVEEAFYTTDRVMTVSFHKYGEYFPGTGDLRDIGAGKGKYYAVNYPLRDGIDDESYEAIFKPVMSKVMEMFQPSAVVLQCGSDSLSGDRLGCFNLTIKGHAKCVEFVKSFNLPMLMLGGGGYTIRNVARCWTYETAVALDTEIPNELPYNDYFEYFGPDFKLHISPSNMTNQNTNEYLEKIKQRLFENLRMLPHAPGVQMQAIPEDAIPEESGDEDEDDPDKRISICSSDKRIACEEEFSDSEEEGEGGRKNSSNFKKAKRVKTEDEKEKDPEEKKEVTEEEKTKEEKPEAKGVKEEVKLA

IC50 (Histone deacetylase 1): 26 nM | IC50 [1]: 1.2 nM | IC50 [2]: 22 nM
Compound: CCn1c(C)nc2c(F)cc(-c3nc(Nc4ccc(CNC(=O)CCCCCCC(=O)NO)cc4)ncc3F)cc21

IC50 (MV4-11): 40 nM
Compound: CCNC(=O)c1cc2c(-c3cc(C(C)(C)O)ccc3Oc3c(C)cc(F)cc3C)cn(C)c(=O)c2[nH]1 [ABBV-744]

Compound: COc1cc(OC)cc(N(CCNC(C)C)c2ccc3ncc(-c4cnn(C)c4)nc3c2)c1 [ERDAFITINIB]
IC50 [3]: 4 nM
